Measured values from ChEMBL document CHEMBL1201862, “PubChem BioAssay data set” (2004).
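Grown in 96-well plates, cells were treated for 48 hours with each compound at five concentrations. Insufficient inhibition: endpoint recorded as highest concentration tested. GI50 = concentration required for 50% inhibition of growth.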 Calls of active or inactive are those of the source. Cut-off read from the data, not from the text of the source: active = GI50 up to about 1.1 µM and inactive = higher.

What was measured:
Experiment in all cases: DTP human tumour cell line panel, 48 h
K562 = tested on: K562
UACC-62 = tested on: UACC-62
NCI/ADR-RES = tested on: NCI/ADR-RES
SK-MEL-5 = tested on: SK-MEL-5
RXF 393 = tested on: RXF 393
NCI-H460 = tested on: NCI-H460
HOP-62 = tested on: HOP-62
M14 = tested on: M14
SW-620 = tested on: SW-620
SN12C = tested on: SN12C
CCRF-CEM = tested on: CCRF-CEM
TK-10 = tested on: TK-10
OVCAR-4 = tested on: OVCAR-4
UACC-257 = tested on: UACC-257
Malme-3M = tested on: Malme-3M
NCI-H522 = tested on: NCI-H522
A549 = tested on: A549
MCF7 = tested on: MCF7
IGROV-1 = tested on: IGROV-1
Hs-578T = tested on: Hs-578T
HOP-92 = tested on: HOP-92
SK-OV-3 = tested on: SK-OV-3
SF-268 = tested on: SF-268
PC-3 = tested on: PC-3
DU-145 = tested on: DU-145
SK-MEL-28 = tested on: SK-MEL-28
MDA-MB-231 = tested on: MDA-MB-231
MOLT-4 = tested on: MOLT-4
SR = tested on: SR
HT-29 = tested on: HT-29
SNB-75 = tested on: SNB-75
OVCAR-5 = tested on: OVCAR-5
T47D = tested on: T47D
A498 = tested on: A498
KM12 = tested on: KM12
ACHN = tested on: ACHN
EKVX = tested on: EKVX
RPMI-8226 = tested on: RPMI-8226
SF-295 = tested on: SF-295
SF-539 = tested on: SF-539
UO-31 = tested on: UO-31
HCT-15 = tested on: HCT-15
HL-60 = tested on: HL-60
LOX IMVI = tested on: LOX IMVI
HCT-116 = tested on: HCT-116
COLO 205 = tested on: COLO 205
MDA-N = tested on: MDA-N
HCC 2998 = tested on: HCC 2998
OVCAR-8 = tested on: OVCAR-8
MDA-MB-435 = tested on: MDA-MB-435
786-0 = tested on: 786-0
OVCAR-3 = tested on: OVCAR-3
CAKI-1 = tested on: CAKI-1
NCI-H23 = tested on: NCI-H23
SK-MEL-2 = tested on: SK-MEL-2
SNB-19 = tested on: SNB-19
NCI-H226 = tested on: NCI-H226
U-251 = tested on: U-251
BT-549 = tested on: BT-549

Measured: GI50

CN(C)CCCNC(=O)N/N=C/c1ccccn1
> 10 µM: HCT-15
inactive: K562 > 10 µM | UACC-62 > 10 µM | NCI/ADR-RES > 10 µM | SK-MEL-5 > 10 µM | RXF 393 > 10 µM | NCI-H460 > 10 µM | HOP-62 > 10 µM | M14 > 10 µM | SW-620 > 10 µM | SN12C > 10 µM | CCRF-CEM > 10 µM | TK-10 > 10 µM | OVCAR-4 > 10 µM | UACC-257 9.42 µM | Malme-3M > 10 µM | NCI-H522 > 10 µM | A549 > 10 µM | MCF7 > 10 µM | IGROV-1 > 10 µM | Hs-578T > 10 µM | HOP-92 > 10 µM | SK-OV-3 > 10 µM | SF-268 > 10 µM | PC-3 > 10 µM | DU-145 > 10 µM | SK-MEL-28 > 10 µM | MDA-MB-231 > 10 µM | MOLT-4 > 10 µM | SR > 10 µM | HT-29 > 10 µM | SNB-75 > 10 µM | OVCAR-5 > 10 µM | T47D > 10 µM | A498 > 10 µM | KM12 > 10 µM | ACHN > 10 µM | EKVX > 10 µM | RPMI-8226 > 10 µM | SF-295 > 10 µM | SF-539 > 10 µM | UO-31 > 10 µM | HL-60 > 10 µM | LOX IMVI > 10 µM | HCT-116 > 10 µM | COLO 205 > 10 µM | MDA-N > 10 µM | HCC 2998 > 10 µM | OVCAR-8 > 10 µM

Nc1ncnc2c(C3OC(CO)C(O)C3O)nsc12 (stereo not given)
active: A498 < 0.0115 µM

COC(=O)C1=C(OC(=O)/C(=C/c2c(F)cccc2F)c2ccccc2)C(C(=O)OC)[C@@]2(O)[C@@H](C(=O)OC)[C@H](C)C[C@@H]1[C@@H]2C(=O)OC (stereo not given in full)
> 100 µM: HCT-15
inactive: MDA-MB-435 > 100 µM | K562 > 100 µM | UACC-62 > 100 µM | NCI/ADR-RES > 100 µM | RXF 393 > 100 µM | NCI-H460 > 100 µM | HOP-62 > 100 µM | M14 > 100 µM | SW-620 > 100 µM | SN12C > 100 µM | CCRF-CEM > 100 µM | 786-0 > 100 µM | TK-10 > 100 µM | OVCAR-3 > 100 µM | OVCAR-4 > 100 µM | UACC-257 > 100 µM | Malme-3M 68.5 µM | NCI-H522 6.76 µM | A549 86.3 µM | IGROV-1 59.4 µM | CAKI-1 > 100 µM | SK-OV-3 > 100 µM | SF-268 > 100 µM | PC-3 > 100 µM | DU-145 > 100 µM | NCI-H23 > 100 µM | SK-MEL-28 > 100 µM | SK-MEL-2 > 100 µM | MDA-MB-231 > 100 µM | MOLT-4 > 100 µM | HT-29 > 100 µM | SNB-75 > 100 µM | SNB-19 > 100 µM | OVCAR-5 > 100 µM | T47D > 100 µM | KM12 > 100 µM | NCI-H226 > 100 µM | U-251 > 100 µM | ACHN > 100 µM | EKVX > 100 µM | SF-295 > 100 µM | SF-539 > 100 µM | UO-31 2.9 µM | HL-60 > 100 µM | BT-549 > 100 µM | LOX IMVI > 100 µM | HCT-116 > 100 µM | COLO 205 > 100 µM | OVCAR-8 > 100 µM
